Numbered stars: 1 amine (or outer) side, 2 acyl side, 3 side chain; on linkers, the order of the positions; unused ones are H or OH. Peptide text beside a SMILES is read from it. * marks the point of attachment. pNA = O=[N+]([O-])c1ccc(N*)cc1; Suc = O=C(CCC(=O)[*:2])[*:1]
How the values were obtained:
[1] = molecular target: T1, Peptidyl-prolyl cis-trans isomerase A (Homo sapiens, UniProt P62937); assay: Inhibition of fluorescent cyclosporin A binding to human CypA by TR-FRET assay
[2] = Aqueous solubility of the compound; type: physicochemical; conditions: buffer
[3] = Intrinsic clearance in human liver microsomes; type: ADME; conditions: read-out: CLH
[4] = Distribution coefficient, logD of the compound; type: physicochemical; conditions: octanol/water
[5] = Apparent permeability across apical to basolateral side in human Caco2 cells; type: ADME, cell-based; conditions: Caco-2
[6] = Unbound fraction in human plasma; type: ADME, cell-free
[7] = Apparent permeability across basolateral to apical side in human Caco2 cells; type: ADME, cell-based; conditions: Caco-2
[8] = molecular target: T1, Peptidyl-prolyl cis-trans isomerase A; assay: Binding affinity to CypA (unknown origin) by fluorescence titration method

T1 sequence (P62937 whole entry): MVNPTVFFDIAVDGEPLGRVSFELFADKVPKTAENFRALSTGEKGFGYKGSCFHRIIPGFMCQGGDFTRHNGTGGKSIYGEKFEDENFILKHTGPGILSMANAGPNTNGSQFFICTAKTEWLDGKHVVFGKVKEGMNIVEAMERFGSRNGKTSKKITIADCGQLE

SMILES | Kd [1] [µM] | other results
C[C@@]1(NCC2CCOCC2)COCCCCOC[C@@H](C(=O)O)NC(=O)[C@@H]2CCCN2C(=O)CNC1=O | > 600 | 
C[C@@]1(NC(=O)c2cc(Cl)cc(Cl)c2)COCCCCOC[C@@H](C(=O)O)NC(=O)[C@@H]2CCCN2C(=O)CNC1=O | > 600 | 
C[C@@]1(NCC2CCCCCCC2)COCCCCOC[C@@H](C(=O)O)NC(=O)[C@@H]2CCCN2C(=O)CNC1=O | 5.4 | 
C[C@@]1(NC(=O)C2CCC2)COCCCCOC[C@@H](C(=O)O)NC(=O)[C@@H]2CCCN2C(=O)CNC1=O | 139 | 
C[C@H](NC(=O)CCC(=O)O)C(=O)NCC(=O)N1CCC[C@H]1C(=O)N[C@@H](Cc1ccccc1)C(=O)Nc1ccc([N+](=O)[O-])cc1 (Suc-AGPF-pNA) |  | Kd [8]: 135 µM

Now from value to compound, other results behind:

Kd [1] [µM] | SMILES | other results
> 600 | C[C@@]1(NCCCc2ccccc2)COCCCCOC[C@@H](C(=O)O)NC(=O)[C@@H]2CCCN2C(=O)CNC1=O | 
10.5 | C[C@@]1(NCCc2ccccc2)COCCCCOC[C@@H](C(=O)O)NC(=O)[C@@H]2CCCN2C(=O)CNC1=O.Cl | solubility [2]: > 1000 µM; microsomal CLint [3]: < 3 µL/min/mg; logD [4]: -1.8; Papp A→B [5]: 0.1 ×10⁻⁶ cm/s; fraction unbound [6]: 1; Papp B→A [7]: 0.17 ×10⁻⁶ cm/s
32 | C[C@@]1(NCC2CCCCC2)COCCCCOC[C@@H](C(=O)O)NC(=O)[C@@H]2CCCN2C(=O)CNC1=O | 
> 600 | CCCCCCC(=O)N[C@]1(C)COCCCCOC[C@@H](C(=O)O)NC(=O)[C@@H]2CCCN2C(=O)CNC1=O | 
127 | C[C@@]1(N)COCCCCOC[C@@H](C(=O)O)NC(=O)[C@@H]2CCCN2C(=O)CNC1=O | 
> 600 | C[C@@]1(NCC2CCCC2)COCCCCOC[C@@H](C(=O)O)NC(=O)[C@@H]2CCCN2C(=O)CNC1=O | 
> 600 | C[C@@]1(NCc2ccccc2)COCCCCOC[C@@H](C(=O)O)NC(=O)[C@@H]2CCCN2C(=O)CNC1=O | 
> 600 | CC(=O)N[C@]1(C)COCCCCOC[C@@H](C(=O)O)NC(=O)[C@@H]2CCCN2C(=O)CNC1=O | 

From ChEMBL document CHEMBL3862006, “Design and synthesis of peptide-based macrocyclic cyclophilin inhibitors” (Bioorg Med Chem Lett, 2016)
